pIC50: −log10 of the molar value. Structures can show the parent of a compound that is named as a salt.
What was measured:
Test in all cases: biochemical
[1] = target: T1, dopamine (DA) reuptake in synaptosomes (Rattus norvegicus, UniProt P23977)
T1 construct: in synaptosomes as described in WO 97/16451; from tissue

[2] = target: T2, noradrenaline (NA) reuptake in synaptosomes (Rattus norvegicus, UniProt Q63380)
T2 construct: in synaptosomes as described in WO 97/16451; from tissue

[3] = target: T3, serotonine (5-HT) reuptake in synaptosomes (Rattus norvegicus, UniProt P31652)
T3 construct: in synaptosomes as described in WO 97/16451; from tissue
T3 sequence (P31652 whole entry): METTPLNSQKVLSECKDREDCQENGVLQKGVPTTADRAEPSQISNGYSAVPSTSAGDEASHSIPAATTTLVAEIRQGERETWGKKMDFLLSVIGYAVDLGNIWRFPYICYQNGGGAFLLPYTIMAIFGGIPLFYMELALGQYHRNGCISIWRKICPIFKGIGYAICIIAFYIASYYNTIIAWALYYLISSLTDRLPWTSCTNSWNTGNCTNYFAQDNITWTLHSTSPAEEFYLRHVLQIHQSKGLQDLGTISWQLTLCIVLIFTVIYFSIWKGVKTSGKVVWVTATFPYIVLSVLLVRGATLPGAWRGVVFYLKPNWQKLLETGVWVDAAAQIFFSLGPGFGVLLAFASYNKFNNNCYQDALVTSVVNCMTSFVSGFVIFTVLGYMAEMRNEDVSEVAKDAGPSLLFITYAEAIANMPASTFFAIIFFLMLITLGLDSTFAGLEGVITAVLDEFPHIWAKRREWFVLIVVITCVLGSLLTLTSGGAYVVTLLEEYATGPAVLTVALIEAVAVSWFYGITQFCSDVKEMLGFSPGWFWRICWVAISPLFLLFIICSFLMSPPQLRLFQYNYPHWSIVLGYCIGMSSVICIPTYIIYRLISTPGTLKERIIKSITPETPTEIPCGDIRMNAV

T1 sequence (P23977 whole entry): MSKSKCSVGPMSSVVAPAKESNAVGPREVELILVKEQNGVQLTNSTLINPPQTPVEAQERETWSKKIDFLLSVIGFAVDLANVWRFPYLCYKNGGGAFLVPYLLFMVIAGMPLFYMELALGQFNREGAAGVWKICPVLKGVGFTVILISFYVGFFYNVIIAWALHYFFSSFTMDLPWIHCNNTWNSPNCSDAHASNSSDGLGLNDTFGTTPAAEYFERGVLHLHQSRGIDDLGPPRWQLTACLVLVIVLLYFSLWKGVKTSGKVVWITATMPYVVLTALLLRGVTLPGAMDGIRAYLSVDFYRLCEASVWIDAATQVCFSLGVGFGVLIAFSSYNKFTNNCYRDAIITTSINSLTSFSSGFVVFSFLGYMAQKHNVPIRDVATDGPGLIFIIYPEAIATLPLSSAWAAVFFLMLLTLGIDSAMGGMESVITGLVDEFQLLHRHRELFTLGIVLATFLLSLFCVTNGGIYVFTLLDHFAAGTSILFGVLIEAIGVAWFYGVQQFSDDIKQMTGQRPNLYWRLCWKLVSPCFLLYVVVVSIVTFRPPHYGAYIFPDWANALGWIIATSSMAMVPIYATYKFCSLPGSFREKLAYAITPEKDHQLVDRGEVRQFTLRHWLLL
T2 sequence (Q63380 1-617): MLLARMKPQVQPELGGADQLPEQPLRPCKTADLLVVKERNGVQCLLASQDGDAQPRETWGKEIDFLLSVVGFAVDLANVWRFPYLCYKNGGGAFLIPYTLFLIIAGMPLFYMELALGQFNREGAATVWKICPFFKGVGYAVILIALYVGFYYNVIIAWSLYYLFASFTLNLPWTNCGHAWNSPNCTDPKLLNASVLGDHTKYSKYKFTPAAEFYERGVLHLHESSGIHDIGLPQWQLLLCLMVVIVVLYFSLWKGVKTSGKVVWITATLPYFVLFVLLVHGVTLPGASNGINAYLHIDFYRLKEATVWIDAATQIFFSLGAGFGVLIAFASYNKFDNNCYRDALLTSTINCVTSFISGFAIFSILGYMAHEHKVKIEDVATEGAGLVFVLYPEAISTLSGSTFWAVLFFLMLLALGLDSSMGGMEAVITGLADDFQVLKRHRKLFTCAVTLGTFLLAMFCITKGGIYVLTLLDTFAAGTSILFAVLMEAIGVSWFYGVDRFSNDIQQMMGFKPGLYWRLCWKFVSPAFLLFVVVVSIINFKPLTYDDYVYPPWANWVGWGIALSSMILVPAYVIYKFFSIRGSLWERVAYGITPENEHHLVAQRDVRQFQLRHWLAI

For `CCC(=O)N(CC1CCN(CCc2ccc(F)cc2)CC1)c1ccccc1` [Compound 12j, N-{1-[2-(4-Fluoro-phenyl)-ethyl]-piperidin-4-ylmethyl}-N-phenyl-propionamide fumaric acid salt], the pIC50 [1] was 6.32, the pIC50 [2] was 6.55 and the pIC50 [3] was 5.26.
